Patent US20090264433A1, “Compounds, Compositions and Methods Comprising Triazine Derivatives” (Institute for OneWorld Health, priority 2008, published 2009)
Several values for one entry are separate records, joined by “and”; a condition that tells them apart may be missing. Identical values can stand only once.

System: mice (CD1 strain), CTX-injected small intestinal loops
Conditions: mouse, in vivo

Compound | closed loop % inhibition
Oc1c(Br)cc(-c2cnc(COc3cccc(Cl)c3Cl)nn2)cc1Br [Compound 30, 2,6-dibromo-4-(3-((2,3-dichlorophenoxy)methyl)-1,2,4-triazin-6-yl)phenol] | 94.4%
Oc1c(Cl)cc(-c2cnc(C(O)(c3ccccc3)c3ccccc3)nn2)cc1Cl [Compound 36, 2,6-dichloro-4-(3-(hydroxydiphenylmethyl)-1,2,4-triazin-6-yl)phenol] | 74.9% and 62.1%
Oc1c(Cl)cc(-c2cnc(OCc3ccccc3F)nn2)cc1Cl [Compound 127, 2,6-dichloro-4-(3-(2-fluorobenzyloxy)-1,2,4-triazin-6-yl)phenol] | 70.2% and 62.7%
Oc1c(Br)cc(-c2cnc(OCCc3ccccc3)nn2)cc1Br [Compound 96, 2,6-dibromo-4-(3-phenethoxy-1,2,4-triazin-6-yl)phenol] | 78.6%
Oc1c(Br)cc(-c2cnc(OCc3ccc(Cl)cc3)nn2)cc1Br [Compound 20, 2,6-dibromo-4-(3-(4-chlorobenzyloxy)-1,2,4-triazin-6-yl)phenol] | 87.6%
